Laboratory results published in ChEMBL document CHEMBL2176966, “Discovery of 6,7-dihydro-5H-pyrrolo[2,3-a]pyrimidines as orally available G protein-coupled receptor 119 agonists” (J Med Chem, 2012).
The source made the active and inactive calls. No cut-off for these calls is given here.

Legend:
Rattus norvegicus [1] = experiment: Antihyperglycemic activity in Wistar rat assessed as glucose excursion curve at 10 mg/kg, po by glucose tolerance test; assay type: functional
[2] = target: T1, Glucose-dependent insulinotropic receptor (Homo sapiens, UniProt Q8TDV5); experiment: Agonist activity at human GPR119 receptor expressed in CHO-K1 cells co-expressing 6CRE-luciferase gene after 5 hrs by luciferase reporter gene assay; assay type: functional, cell-based
T1 sequence (Q8TDV5 whole entry): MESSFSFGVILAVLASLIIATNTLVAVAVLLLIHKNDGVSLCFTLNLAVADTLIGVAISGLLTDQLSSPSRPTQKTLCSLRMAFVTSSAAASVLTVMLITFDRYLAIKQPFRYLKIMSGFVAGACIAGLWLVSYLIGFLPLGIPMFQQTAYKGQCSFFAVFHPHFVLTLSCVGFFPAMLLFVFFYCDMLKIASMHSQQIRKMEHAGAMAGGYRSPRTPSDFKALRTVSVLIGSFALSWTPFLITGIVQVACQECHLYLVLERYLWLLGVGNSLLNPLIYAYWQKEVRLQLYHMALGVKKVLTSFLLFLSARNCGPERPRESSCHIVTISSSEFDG

Rattus norvegicus [3] = experiment: Dose normalized AUC (0 to 24 hrs) in rat at 30 mg/kg; assay type: ADME, organism-based; parameters: dose 30 mg/kg; details: in vivo
[4] = AUC (0 to 24 hrs) in rat at 10 mg/kg; assay type: ADME, organism-based; parameters: time < 24 hr, dose 10 mg/kg; details: plasma
Mus musculus = experiment: Dose normalized AUC (0 to 24 hrs) in mouse at 30 mg/kg; assay type: ADME, organism-based; parameters: dose 30 mg/kg; details: in vivo

## N#C[C@@H]1CCCN1C(=O)CNC12CC3CC(CC(O)(C3)C1)C2
Rattus norvegicus [1]
  Activity: Active

## CC(C)(C)OC(=O)N1CCC(Oc2cccc3c2CCN3c2ccc(S(C)(=O)=O)cc2)CC1
[2]; read-out: pEC50 (converted)
  EC50: 158 nM

## CC(C)OC(=O)N1CCC(Oc2cccc3c2CCN3c2ccc(S(C)(=O)=O)cc2F)CC1
[2]; read-out: pEC50 (converted)
  EC50: 1000 nM

## CC(C)OC(=O)N1CCC(Oc2ncnc3c2CCN3c2ccc(C#N)c(F)c2)CC1
[2]; read-out: pEC50 (converted)
  EC50: 398 nM

## CC(C)(C)COC(=O)N1CCC(Oc2ncnc3c2CCN3c2ccc(S(C)(=O)=O)cc2F)CC1
[2]; read-out: pEC50 (converted)
  EC50: 39.8 nM

## CC(C)OC(=O)N1CCC(Oc2ncnc3c2CCN3c2ccc(S(C)(=O)=O)cc2)CC1
[2]; read-out: pEC50 (converted)
  EC50: 126 nM

## CCCOC(=O)N1CCC(Oc2ncnc3c2CCN3c2ccc(S(C)(=O)=O)cc2F)CC1
[2]; read-out: pEC50 (converted)
  EC50: 79.4 nM

## CS(=O)(=O)c1ccc(N2CCc3c(OC4CCN(C(=S)Sc5ccccc5)CC4)ncnc32)c(F)c1
[2]; read-out: pEC50 (converted)
  EC50: 12.6 nM

## CC(C)COC(=O)N1CCC(Oc2ncnc3c2CCN3c2ccc(S(C)(=O)=O)cc2F)CC1
[2]; read-out: pEC50 (converted)
  EC50: 25.1 nM

## Cc1cc(S(C)(=O)=O)ccc1N1CCc2c(OC3CCN(C(=O)OC(C)C)CC3)ncnc21
[2]; read-out: pEC50 (converted)
  EC50: 100 nM

## CC(C)OC(=O)N1CCC(Oc2ncnc3c2CCN3c2ccc([S@@+](C)[O-])cc2F)CC1
[2]; read-out: pEC50 (converted)
  EC50: 631 nM

## Cc1nc(OC2CCN(c3nc(C(C)C)no3)CC2)c2c(n1)N(c1ccc(S(C)(=O)=O)cc1F)CC2
[2]; read-out: pEC50 (converted)
  EC50: 251 nM

## CC(C)OC(=O)N1CCC(Nc2ncnc3c2CCN3c2ccc(S(C)(=O)=O)cc2F)CC1
[2]; read-out: pEC50 (converted)
  EC50: 2000 nM

## CC(C)OC(=O)N1CCC(Oc2ncnc3c2CCN3c2ccc([S@+](C)[O-])cc2F)CC1
[2]; read-out: pEC50 (converted)
  EC50: 50.1 nM

## CCS(=O)(=O)N1CCC(Oc2ncnc3c2CCN3c2ccc(S(C)(=O)=O)cc2F)CC1
[2]; read-out: pEC50 (converted)
  EC50: 1580 nM

## CC(C)OC(=O)N1CCC(Oc2nc(N)nc3c2CCN3c2ccc(S(C)(=O)=O)cc2F)CC1
[2]; read-out: pEC50 (converted)
  EC50: 794 nM

## CS(=O)(=O)c1ccc(N2CCc3c(OC4CCN(C(=O)OCCF)CC4)ncnc32)c(F)c1
[2]; read-out: pEC50 (converted)
  EC50: 501 nM

## CCSC(=O)N1CCC(Oc2ncnc3c2CCN3c2ccc(S(C)(=O)=O)cc2F)CC1
[2]; read-out: pEC50 (converted)
  EC50: 31.6 nM

## CCOC(=O)N1CCC(Oc2ncnc3c2CCN3c2ccc(S(C)(=O)=O)cc2F)CC1
[2]; read-out: pEC50 (converted)
  EC50: 251 nM

## CSC(=O)N1CCC(Oc2ncnc3c2CCN3c2ccc(S(C)(=O)=O)cc2F)CC1
[2]; read-out: pEC50 (converted)
  EC50: 251 nM

## CS(=O)(=O)c1ccc(N2CCc3c(OC4CCN(C5=NCCCN5)CC4)ncnc32)c(F)c1
[2]; read-out: pEC50 (converted)
  EC50: 2000 nM

## CC(C)OC(=O)N1CCC(Oc2ncnc3c2CCN3c2ccc(-c3cccn3C)cc2F)CC1
[2]; read-out: pEC50 (converted)
  EC50: 158 nM

## CC(C)OC(=O)N1CCC(S(=O)(=O)c2ncnc3c2CCN3c2ccc(S(C)(=O)=O)cc2F)CC1
[2]; read-out: pEC50 (converted)
  EC50: > 10000 nM

## CCCCOC(=O)N1CCC(Oc2ncnc3c2CCN3c2ccc(S(C)(=O)=O)cc2F)CC1
[2]; read-out: pEC50 (converted)
  EC50: 50.1 nM

## CC(C)OC(=O)N1CCC(N(C)c2ncnc3c2CCN3c2ccc(S(C)(=O)=O)cc2F)CC1
[2]; read-out: pEC50 (converted)
  EC50: 631 nM

## Cc1ncccc1N1CCc2c(OC3CCN(C(=O)OC(C)C)CC3)ncnc21
[2]; read-out: pEC50 (converted)
  EC50: > 10000 nM

## CC(C)OC(=O)N1CCC(Oc2ncnc3c2CC(C)N3c2ccc(S(C)(=O)=O)cc2F)CC1 (single isomer, unassigned; (-))
[2]; read-out: pEC50 (converted)
  EC50: > 10000 nM

## CC(C)OC(=O)N1CCC(Oc2ncnc3c2CCN3c2ccc(C#N)cc2F)CC1
[2]; read-out: pEC50 (converted)
  EC50: 63.1 nM
Rattus norvegicus [3]
  AUC/dose: > 1 µg·h/mL

## Cc1nc(OC2CCN(C(=O)OC(C)C)CC2)c2c(n1)N(c1ccc(S(C)(=O)=O)cc1F)CC2
[2]; read-out: pEC50 (converted)
  EC50: 100 nM

## CC(C)OC(=O)N1CCC(Oc2cccc3c2CCN3c2ccc(S(C)(=O)=O)cc2)CC1
[2]; read-out: pEC50 (converted)
  EC50: 501 nM

## CC(C)S(=O)(=O)N1CCC(Oc2ncnc3c2CCN3c2ccc(S(C)(=O)=O)cc2F)CC1
[2]; read-out: pEC50 (converted)
  EC50: 1260 nM

## CC(C)c1noc(N2CCC(O)CC2)n1
[2]; read-out: pEC50 (converted)
  EC50: 50.1 nM

## CSc1ccc(N2CCc3c(OC4CCN(C(=O)OC(C)C)CC4)ncnc32)c(F)c1
[2]; read-out: pEC50 (converted)
  EC50: 398 nM

## N#CN1CCC(O)CC1
[2]; read-out: pEC50 (converted)
  EC50: 316 nM

## CC(C)OC(=O)N1CCC(Oc2ncnc3c2CCN3c2ccc(S(C)(=O)=O)nc2)CC1
[2]; read-out: pEC50 (converted)
  EC50: 251 nM

## CC(C)OC(=O)N1CCC(Oc2ncnc3c2CC(C)N3c2ccc(S(C)(=O)=O)cc2F)CC1 (single isomer, unassigned; (+))
[2]; cho-k1
  pEC50: < 5

## CC(C)OC(=O)N1CCC(Oc2ncnc3c2CCN3c2ccc(F)cn2)CC1
[2]; read-out: pEC50 (converted)
  EC50: > 10000 nM

## CC(C)c1noc(N2CCC(Oc3ncnc4c3CCN4c3ccc(S(C)(=O)=O)cc3F)CC2)n1
[4]
  AUC(0-t) at 24 h: 500 ng·h/mL
[2]; read-out: pEC50 (converted)
  EC50: 79.4 nM

## COC(=O)N1CCC(Oc2ncnc3c2CCN3c2ccc(S(C)(=O)=O)cc2F)CC1
[2]; read-out: pEC50 (converted)
  EC50: 316 nM

## O=[N+]([O-])c1c(Nc2ccc(-n3cncn3)cc2)ncnc1N1CCC(Sc2ccccn2)CC1
[2]; read-out: EC50
  EC50: 200 nM

## CCN(CC)C(=O)CN1CCC(Oc2ncnc3c2CCN3c2ccc(S(C)(=O)=O)cc2F)CC1
[2]; read-out: pEC50 (converted)
  EC50: > 10000 nM

## CC(C)OC(=O)N1CCC(Oc2ncnc3c2CCN3c2ccc(S(C)(=O)=O)c(F)c2)CC1
[2]; read-out: pEC50 (converted)
  EC50: 158 nM

## CC(C)SC(=O)N1CCC(Oc2ncnc3c2CCN3c2ccc(S(C)(=O)=O)cc2F)CC1
[2]; read-out: pEC50 (converted)
  EC50: 10 nM

## CC(C)OC(=O)N1CCC(Oc2ncnc3c2CCN3c2ccc(-c3nccs3)cc2F)CC1
[2]; read-out: pEC50 (converted)
  EC50: 79.4 nM

## CC(C)OC(=O)N1CCC(Oc2ncnc3c2CCN3c2ccc(S(C)(=O)=O)cn2)CC1
[2]; read-out: pEC50 (converted)
  EC50: 126 nM

## CC(C)(C)OC(=O)N1CCC(Oc2cccc3c2ccn3-c2ccc(S(C)(=O)=O)cc2)CC1
[2]; read-out: pEC50 (converted)
  EC50: 631 nM

## CNc1nc(OC2CCN(C(=O)OC(C)C)CC2)c2c(n1)N(c1ccc(S(C)(=O)=O)cc1F)CC2
[2]; read-out: pEC50 (converted)
  EC50: > 10000 nM

## CC(C)OC(=O)N1CCC(Sc2ncnc3c2CCN3c2ccc(S(C)(=O)=O)cc2F)CC1
[2]; read-out: pEC50 (converted)
  EC50: 79.4 nM

## CC(C)OC(=O)N1CCC(Oc2ncnc3c2CCN3c2ccc(C#N)cn2)CC1
[2]; read-out: pEC50 (converted)
  EC50: 794 nM

## CN(C)S(=O)(=O)N1CCC(Oc2ncnc3c2CCN3c2ccc(S(C)(=O)=O)cc2F)CC1
[2]; read-out: pEC50 (converted)
  EC50: 398 nM

## Cc1nc(OC2CCN(C(=O)OC(C)(C)C)CC2)c2c(n1)N(c1ccc(S(C)(=O)=O)cc1F)CC2
[2]; read-out: pEC50 (converted)
  EC50: 126 nM

## CC(C)OC(=O)N1CCC(Oc2ncnc3c2CCN3c2ccc(S(=O)(=O)N(C)C)cc2)CC1
[2]; read-out: pEC50 (converted)
  EC50: 501 nM

## COCCOC(=O)N1CCC(Oc2ncnc3c2CCN3c2ccc(S(C)(=O)=O)cc2F)CC1
[2]; read-out: pEC50 (converted)
  EC50: 316 nM

## CC(C)(C)OC(=O)N1CCC(Oc2ncnc3c2CCN3c2ccc(S(C)(=O)=O)cc2F)CC1
[2]; read-out: pEC50 (converted)
  EC50: 20 nM

## CCc1cnc(N2CCC(Oc3ncnc4c3CCN4c3ccc(S(C)(=O)=O)cc3F)CC2)nc1
Mus musculus
  AUC/dose: 0.04 µg·h/mL
